Assay results reported in article PMC10439028, “SGLT5 is the renal transporter for 1,5-anhydroglucitol, a major player in two rare forms of neutropenia” (Cellular and Molecular Life Sciences: CMLS, 2023).
Values joined by “and” are separate entries in the source; they are usually repeats but may differ in a detail not shown here. Equal entries are not always repeated. Where two headings read alike, the source gives them in different places. One block for each molecule: values may come before it.

What was measured:
Assay type in all cases: cell-based
human SGLT5 = molecular target: T1, human SGLT5 (Homo sapiens, UniProt A0PJK1); test: Inhibition of 10 µM radiolabelled 1,5-AG transport in HEK293T cells overexpressing human SGLT5
T1 construct: expressed in transfected cells
T1 sequence (A0PJK1 1-596): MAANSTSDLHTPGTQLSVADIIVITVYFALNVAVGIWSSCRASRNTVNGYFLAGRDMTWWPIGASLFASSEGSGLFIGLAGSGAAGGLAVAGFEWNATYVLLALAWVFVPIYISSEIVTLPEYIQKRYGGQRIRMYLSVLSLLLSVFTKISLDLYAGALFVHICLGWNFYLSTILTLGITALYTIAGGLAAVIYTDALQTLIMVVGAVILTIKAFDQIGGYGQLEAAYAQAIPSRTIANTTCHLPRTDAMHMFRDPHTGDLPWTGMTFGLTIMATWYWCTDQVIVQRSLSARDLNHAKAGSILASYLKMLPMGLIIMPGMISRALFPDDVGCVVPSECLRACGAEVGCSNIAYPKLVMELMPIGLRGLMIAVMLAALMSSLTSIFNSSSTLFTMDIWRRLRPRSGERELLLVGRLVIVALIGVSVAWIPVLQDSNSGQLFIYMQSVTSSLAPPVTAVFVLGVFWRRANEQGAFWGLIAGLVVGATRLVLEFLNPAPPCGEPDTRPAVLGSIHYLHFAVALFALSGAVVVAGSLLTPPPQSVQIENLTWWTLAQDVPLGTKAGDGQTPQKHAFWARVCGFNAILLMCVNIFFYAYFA
Description: (§1) For a typical transporter experiment we proceeded as follows. […] To minimize cell loss during the various washing steps in the radioactive uptake experiments, the wells where the cells were seeded were previously coated with poly- D-lysine, which improved their adhesion to the plastic surface of the wells. For this, each well of the 24-well plates was treated with 200 µl of a 0.01% poly-L-lysine solution for 10 min, washed 3 times with 1 ml of sterilized water and left to dry for 2 h. Only then could the 24-well plates be seeded with the appropriate cell lines and cultured overnight at 37 °C in 5% CO2.
(§2) On day two, the radioactive uptake assay could be performed. The cell culture media was removed by aspiration and cells were incubated for 20 min at 37 °C and 5% CO2 with a basal medium (10 mM HEPES, pH 7.4, 1 mM CaCl2, 1 mM MgCl2, 2 mM KCl) containing 140 mM choline chloride to deplete intracellular […] ions. This was subsequently replaced with the uptake medium (basal medium + 140 mM NaCl, 25 μM cytochalasin B, 1 mg/ml BSA) containing either radioactive U-[^14C]-mannose (15,000 cpm/well) or 2-[^3H]-1,5-AG (30,000 cpm/well) and respectively, non-radioactive mannose or 1,5-AG, at the required concentration in the experiment. Importantly, when measuring the transport of mannose, the uptake media also contained 0.5 mM glucose. This resulted from the need to reduce the background transport of mannose in control HEK293T cells in order to optimize the transport assay for this sugar in our model cell lines. Consequently, after testing various inhibitors (Supplementary Fig. 1), 0.5 mM glucose + 25 µM cytochalasin B appeared as the best combination to decrease efficiently the endogenous transport of mannose in control cells without affecting the transport of mannose in model cell lines overexpressing SGLT4 and SGLT5. Therefore in the radioactive uptake assays for mannose, the uptake medium was: basal uptake medium + 140 mM NaCl, 25 μM cytochalasin B, 0.5 mM glucose and 1 mg/ml BSA to which we added U-[^12C + ^14C]-mannose as described above.
(§3) Once the uptake medium was added to the cells, the plates were incubated at 37 °C in 5% CO2 during the required time. […] In each experiment, the transport activities were calculated after subtracting a “blank” value, corresponding to the radioactivity in the appropriate control cells (HEK293T cells that were stably or transiently transfected with one of the parent plasmids pEF6/MycHisA, pEF6HisB, pUB82 or pUB83 with no inserted cDNA) that were analyzed in parallel.
(§4) The transport experiments to study the specificity of SGLT4 or SGLT5, were performed in the presence of 10 µM U-[^14C + ^12C]-mannose (for SGLT4) or 2-[^3H + ^1H]-1,5-AG (for SGLT5) and increasing concentrations of various sugars tested. The transport experiments to study the inhibition of empagliflozin, dapagliflozin or remogliflozin, on the transport of 1,5-AG by SGLT5 or its variants were performed in the presence of 10 µM 2-[^3H + ^1H]-1,5-AG and increasing concentrations of the various gliflozins tested.

[1] = molecular target: T2, SGLT5-TM (S70N–E71I–L75H) (Homo sapiens, UniProt A0PJK1, E71I/L75H/S70N); test: Inhibition of 10 µM 1,5-AG transport by triple mutant SGLT5-TM (S70N-E71I-L75H); conditions: versus wild-type SGLT5, competition experiments, Supplementary Fig. 7
T2 construct: pUB83-hSGLT5-iso2 as well as the various SGLT5 mutants obtained were used to transduce HEK293T cells; expressed in transfected cells; host or cells: HEK293T, lentiviral transduction (pUB83)
T2 sequence (A0PJK1 whole entry S70N/E71I/L75H): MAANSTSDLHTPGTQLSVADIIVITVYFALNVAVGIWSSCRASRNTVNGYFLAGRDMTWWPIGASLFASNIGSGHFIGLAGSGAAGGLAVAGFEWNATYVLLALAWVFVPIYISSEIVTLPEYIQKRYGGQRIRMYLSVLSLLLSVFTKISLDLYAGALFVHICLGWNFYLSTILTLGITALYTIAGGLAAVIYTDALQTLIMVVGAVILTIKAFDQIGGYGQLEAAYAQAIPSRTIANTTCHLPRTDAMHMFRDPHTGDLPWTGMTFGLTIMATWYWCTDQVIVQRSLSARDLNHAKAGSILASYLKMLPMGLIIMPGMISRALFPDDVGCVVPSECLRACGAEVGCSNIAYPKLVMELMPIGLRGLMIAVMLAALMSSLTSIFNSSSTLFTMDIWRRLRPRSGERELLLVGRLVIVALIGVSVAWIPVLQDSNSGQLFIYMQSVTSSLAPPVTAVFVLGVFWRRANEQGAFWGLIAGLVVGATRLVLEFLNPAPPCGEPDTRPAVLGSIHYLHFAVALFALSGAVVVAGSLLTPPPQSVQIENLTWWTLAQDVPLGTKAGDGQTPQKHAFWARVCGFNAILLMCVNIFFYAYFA
Description: as §4
SGLT5 mutants were created using the quick-change site directed mutagenesis method that enables effective mutagenesis without subcloning of the amplified PCR products. Complementary primer pairs carrying the desired replacements (Supplementary Table 3) were designed using an online tool (https://www.agilent.com/store/primerDesignProgram.jsp). The PCR protocol was carried out following the manufacturer instructions regarding the KOD HOT Start polymerase kit (TOYOBO™, Novagen). The amplified DNA was cleaned-up from the reactions constituents using the GeneJET PCR purification Kit (Thermo Scientific™) and the size of the DNA fragment were verified by DNA agarose-gel electrophoresis. After eliminating the parental DNA by digesting the purified DNA with the DpnI restriction enzyme, the DNA fragments containing the appropriate changes were transformed in E. coli NEB Turbo competent cells (C2984H). Once colonies were obtained, plasmid DNA was finally amplified, purified and sequenced to verify that the required changes had been introduced and eliminate any PCR errors. Next, pUB83-hSGLT5-iso2 as well as the various SGLT5 mutants obtained were used to transduce HEK293T cells using the exact same protocol as described above to create model cell lines overexpressing the different SGLT5 transporters.
Supplementary Fig. 7: Substrate specificity of SGLT5 - impact of replacing specific and conserved substrate binding residues in human SGLT5 by the equivalent ones in […]
When shown, the IC50 values are derived from inhibition curves showing the transport activity of 1,5-AG by the indicated SGLT5 mutants. Values show the concentration needed of the various sugars to inhibit by 50% the transport activity of 10 µM 2-[1H+3H]-1,5-AG. When the inhibition was too weak to derive IC50 values, the inhibition of the transport of 1,5-AG with the indicated concentration of the inhibitor-sugar is shown. Of note, despite having a lower […]
µM). These apparently contradictory changes are not necessarily surprising: in the case of enzymes, there are multiple examples of mutations that, at the same time, increase the apparent affinity (decrease the Km) of an enzyme for its substrate while decreasing the Vmax.
Measurement of transport activities and the description of the structures of the various inhibitory sugars used are as in Fig. 3C. Data corresponds to n = 3 in at least 2 independent […]
(1 picture or pasted object on this page, not shown here)

human SGLT4 = molecular target: T3, human SGLT4 (Homo sapiens, UniProt Q2M3M2); test: Inhibition of 10 µM radiolabelled mannose transport in HEK293T cells overexpressing human SGLT4; conditions: for inhibition at 10000 µM: HEK-293T, read-out: hSGLT4 inhibition with 10 mM inhibitor
T3 construct: expressed in transfected cells
T3 sequence (Q2M3M2 1-681): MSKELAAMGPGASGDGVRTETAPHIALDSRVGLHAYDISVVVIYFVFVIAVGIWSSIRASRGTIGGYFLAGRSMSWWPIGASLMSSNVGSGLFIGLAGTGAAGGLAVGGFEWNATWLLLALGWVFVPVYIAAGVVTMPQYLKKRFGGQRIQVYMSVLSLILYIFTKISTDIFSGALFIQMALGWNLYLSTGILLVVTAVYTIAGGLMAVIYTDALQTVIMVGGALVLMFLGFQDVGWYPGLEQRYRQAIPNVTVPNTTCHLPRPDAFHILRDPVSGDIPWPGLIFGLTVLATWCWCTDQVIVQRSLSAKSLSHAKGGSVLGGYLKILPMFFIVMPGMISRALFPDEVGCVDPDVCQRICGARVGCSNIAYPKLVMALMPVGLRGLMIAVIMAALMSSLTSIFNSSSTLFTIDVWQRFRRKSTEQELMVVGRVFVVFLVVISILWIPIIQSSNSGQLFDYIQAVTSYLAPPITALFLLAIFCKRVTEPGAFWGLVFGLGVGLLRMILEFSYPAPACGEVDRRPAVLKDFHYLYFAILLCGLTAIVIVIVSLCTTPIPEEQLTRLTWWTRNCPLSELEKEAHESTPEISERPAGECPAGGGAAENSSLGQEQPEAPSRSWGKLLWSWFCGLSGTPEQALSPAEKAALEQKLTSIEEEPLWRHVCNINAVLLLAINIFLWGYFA
Description: as §1, §2, §3, §4

[2] = substrate: OC[C@H]1OC[C@H](O)[C@@H](O)[C@@H]1O; test: Radioactive uptake assay (saturation kinetics) in HEK293T cells expressing mouse SGLT5; conditions: other: 30 min, Supplementary Fig. 4; pH 7.4; 37.0 °C
Description: as §1
On day two, the radioactive uptake assay could be performed. […]
Once the uptake medium was added to the cells, the plates were incubated at 37 °C in 5% CO2 during the required time. […] In each experiment, the transport activities were calculated after subtracting a “blank” value, corresponding to the radioactivity in the appropriate control cells (HEK293T cells that were stably or transiently transfected with one of the parent plasmids pEF6/MycHisA, pEF6HisB, pUB82 or pUB83 with no inserted cDNA) that were analyzed in parallel. […]
Supplementary Fig. 4: Transport activities for 1,5-anhydroglucitol and mannose of recombinant mouse SGLT4 and SGLT5 isoforms measured in HEK293T cells. […]

[3] = substrate 10 μM 1,5-AG, unlabelled sugars, Fig. 3C, read-out: hSGLT5 IC50
[4] = 10 mM inhibitor, substrate 10 μM mannose
[5] = 10 µM 2-[1H+3H]-1,5-AG, Fig. 5C, read-out: IC50 for SGLT5-mediated 1,5-AG transport (gliflozins)

Molecule: OC[C@H]1OC(O)[C@H](O)[C@@H](O)[C@@H]1O (some centres unmarked) [Glucose, glucose]
IC50 (human SGLT5; [3]): 3650 µM
gain of affinity of SGLT5-TM [1]: 30 fold
inhibition at 10000 µM (human SGLT4; [4]): 20%

IC50 (human SGLT5; [5]): 0.26 µM and 0.27 µM
Molecule: Cc1c(Cc2ccc(OC(C)C)cc2)c(O[C@@H]2O[C@H](CO)[C@@H](O)[C@H](O)[C@H]2O)nn1C(C)C [remogliflozin]

Molecule: O=C(CO)[C@@H](O)[C@H](O)[C@H](O)CO [Fructose, fructose]
IC50 (human SGLT5): 726 µM
loss of affinity of SGLT5-TM [1]: tenfold
inhibition at 10000 µM (human SGLT4; [4]): 33%

Molecule: galactose
hSGLT5 inhibition with 10 mM inhibitor (human SGLT5; 10 mM inhibitor, substrate 10 μM 1,5-AG): 10%
gain of affinity of SGLT5-TM [1]: 30 fold
hSGLT4 inhibition with 10 mM inhibitor (human SGLT4; [4]): 39%

IC50 (human SGLT5; [3]): 179 µM
inhibition at 10000 µM (human SGLT4; [4]): 44%
Molecule: O=C1CO[C@H](CO)[C@@H](O)[C@@H]1O [1,5-AF, 1,5-anhydrofructose]

Molecule: OC[C@H]1OC[C@@H](O)[C@@H](O)[C@@H]1O [1,5-AM, 1,5-anhydromannitol]
preference for 1,5-anhydromannitol over 1,5-AG, difference in Ki (human SGLT5; SGLT5): 12 fold
preference of 1,5-anhydromannitol over mannose, difference in Ki (human SGLT5; SGLT5): 25 fold
IC50 (human SGLT5; [3]): 13 µM
loss of affinity of SGLT5-TM [1]: 250 fold
less affinity of SGLT4 compared to SGLT5 (human SGLT4; from Fig. 3C): 200 fold
IC50 (human SGLT4; substrate 10 μM mannose, Fig. 3C, read-out: hSGLT4 IC50): 2300 µM

IC50 (human SGLT5; [5]): 0.4 µM
Molecule: CCOc1ccc(Cc2cc([C@@H]3O[C@H](CO)[C@@H](O)[C@H](O)[C@H]3O)ccc2Cl)cc1 [dapagliflozin]

B1: mouse SGLT5 (Mus musculus) (protein)
chain: MAGNSTGDAHVPGSQLSVTDIIVISVYFALNVAVGIWSACRANKNTVSGYFLAGRDMAWWPIGASLFASSEGSGLFVGLAGSGAAGGLAVAGFEWNATYVLLALAWVFVPIYISSEIVTLPEYIQKRFGGQRIRTYLSVLSLMLSVFTKISIDLYAGALFVHICLGWNFYLSTILTLAITALYTIAGGLATVIYTDALQTIIMVVGAVILAVKAFNQIGGYEQLEAAYAQAIPSRTIPNTTCHLPRADAMHMFRDPSTGDLPWTGMTFGLTIMATWYWCTDQVIVQRSLSARNLNHAKAGSILASYLKMLPMGLMIMPGMISRVLFPDDVGCVVPSECLRACGAEIGCSNIAYPKLVMELMPIGLRGLMIAVMMAALLSSLTSIFNSSSTLFTMDIWRQLRPSAGERELLLVGRLVIVVLIGVSVAWIPVLQGSNSGQLFIYMQSVTSSLAPPVTAIFILGIFWRRANEQGAFWGLMAGLVVGALRLVLEFLYPEPPCGQIDTRPAPLRSLHYLHFAIALFLLTCAVMAAGSLLSPPPQQRQIENLTWWTLAPNWSLGTKTGDGQTPQKRAFWARVCNVNAIFLMCVNIFFYAYFA
notes: expressed in transfected cells; host or cells: HEK293T
Km [2]: 500 µM
